Experimental data: patent publication US20220153751A1, “BIFUNCTIONAL COMPOUNDS” (BioTheryX, Inc., priority 2018, published 2022)

Tests used:
Type in all cases: cell-based
MOLM-13 cells = experiment: MOLM-13 cell viability assay (CellTiter-Glo); settings: Homo sapiens, MOLM-13, 72 h, 3 days, read-out: MOLM-13 Cell Viability % DMSO at 1 μM
Experimental: MOLM-13 cells were cultured in RPMI 1640 media supplemented with 10% fetal bovine serum, streptomycin and penicillin, and were plated in walled 96-well plates at 2500 cells/well. Cells were incubated in DMSO (control) or the indicated compound for 3 days at 37° C. and 5% CO2. Following the incubation period, 100 μL of CellTiterGlow (CTG) reagent (CellTiter-Glo® Luminescent Cell Viability Assay, Promega (Madison, Wis.)) was added to each well. Following a 10 minutes incubation with shaking, luminescence was measured using the EnVision Multimode plate reader.
The MOLM-13 cell viability values as % DMSO are reported as “A”, “B”, “C”, or “D”. “A” represents a % viability value of less than 50% (value <50%). “B” represents a % viability value of equal to or more than 50% and less than 70% (50%≤value<70%). “C” represents a % viability value of equal to or more than 70% and less than 90% (70%≤value<90%). “D” represents a % viability value of equal or more than 90% (value ≥90%).

GSPT1 = molecular target: T1, GSPT1 (Homo sapiens, UniProt P15170+Q96SW2); experiment: GSPT1 degradation assay (Western blot, MV-4-11 cells); settings: MV4-11, 6-8 h
T1 construct: Whole cell extracts were prepared using RIPA buffer; endogenous in cells; host or cells: MV-4-11
T1 sequence (P15170 whole entry): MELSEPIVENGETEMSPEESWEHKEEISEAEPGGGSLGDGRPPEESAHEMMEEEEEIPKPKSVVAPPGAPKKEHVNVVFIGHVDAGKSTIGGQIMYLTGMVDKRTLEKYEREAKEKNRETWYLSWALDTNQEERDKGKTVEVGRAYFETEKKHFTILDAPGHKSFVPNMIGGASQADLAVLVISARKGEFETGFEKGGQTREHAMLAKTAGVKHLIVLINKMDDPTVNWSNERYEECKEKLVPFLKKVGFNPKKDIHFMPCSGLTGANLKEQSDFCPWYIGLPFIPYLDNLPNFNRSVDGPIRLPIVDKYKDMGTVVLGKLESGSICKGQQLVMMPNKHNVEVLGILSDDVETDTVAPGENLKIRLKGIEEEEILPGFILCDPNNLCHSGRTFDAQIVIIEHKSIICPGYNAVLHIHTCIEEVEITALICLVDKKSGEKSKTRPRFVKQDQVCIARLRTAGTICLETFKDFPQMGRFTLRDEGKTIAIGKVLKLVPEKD
T1 sequence (Q96SW2 whole entry): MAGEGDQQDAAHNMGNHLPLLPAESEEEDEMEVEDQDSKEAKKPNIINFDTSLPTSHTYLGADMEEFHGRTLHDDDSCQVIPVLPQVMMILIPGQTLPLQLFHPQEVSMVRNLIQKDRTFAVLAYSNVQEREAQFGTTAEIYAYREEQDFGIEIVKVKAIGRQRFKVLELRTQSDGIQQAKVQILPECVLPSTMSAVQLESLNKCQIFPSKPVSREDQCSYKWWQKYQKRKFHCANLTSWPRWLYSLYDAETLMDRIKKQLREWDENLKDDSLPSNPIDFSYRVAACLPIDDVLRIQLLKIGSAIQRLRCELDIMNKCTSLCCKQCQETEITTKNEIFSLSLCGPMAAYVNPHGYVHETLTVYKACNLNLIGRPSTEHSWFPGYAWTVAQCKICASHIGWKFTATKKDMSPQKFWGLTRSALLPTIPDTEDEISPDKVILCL
T1 sequence (Q16531 whole entry partner): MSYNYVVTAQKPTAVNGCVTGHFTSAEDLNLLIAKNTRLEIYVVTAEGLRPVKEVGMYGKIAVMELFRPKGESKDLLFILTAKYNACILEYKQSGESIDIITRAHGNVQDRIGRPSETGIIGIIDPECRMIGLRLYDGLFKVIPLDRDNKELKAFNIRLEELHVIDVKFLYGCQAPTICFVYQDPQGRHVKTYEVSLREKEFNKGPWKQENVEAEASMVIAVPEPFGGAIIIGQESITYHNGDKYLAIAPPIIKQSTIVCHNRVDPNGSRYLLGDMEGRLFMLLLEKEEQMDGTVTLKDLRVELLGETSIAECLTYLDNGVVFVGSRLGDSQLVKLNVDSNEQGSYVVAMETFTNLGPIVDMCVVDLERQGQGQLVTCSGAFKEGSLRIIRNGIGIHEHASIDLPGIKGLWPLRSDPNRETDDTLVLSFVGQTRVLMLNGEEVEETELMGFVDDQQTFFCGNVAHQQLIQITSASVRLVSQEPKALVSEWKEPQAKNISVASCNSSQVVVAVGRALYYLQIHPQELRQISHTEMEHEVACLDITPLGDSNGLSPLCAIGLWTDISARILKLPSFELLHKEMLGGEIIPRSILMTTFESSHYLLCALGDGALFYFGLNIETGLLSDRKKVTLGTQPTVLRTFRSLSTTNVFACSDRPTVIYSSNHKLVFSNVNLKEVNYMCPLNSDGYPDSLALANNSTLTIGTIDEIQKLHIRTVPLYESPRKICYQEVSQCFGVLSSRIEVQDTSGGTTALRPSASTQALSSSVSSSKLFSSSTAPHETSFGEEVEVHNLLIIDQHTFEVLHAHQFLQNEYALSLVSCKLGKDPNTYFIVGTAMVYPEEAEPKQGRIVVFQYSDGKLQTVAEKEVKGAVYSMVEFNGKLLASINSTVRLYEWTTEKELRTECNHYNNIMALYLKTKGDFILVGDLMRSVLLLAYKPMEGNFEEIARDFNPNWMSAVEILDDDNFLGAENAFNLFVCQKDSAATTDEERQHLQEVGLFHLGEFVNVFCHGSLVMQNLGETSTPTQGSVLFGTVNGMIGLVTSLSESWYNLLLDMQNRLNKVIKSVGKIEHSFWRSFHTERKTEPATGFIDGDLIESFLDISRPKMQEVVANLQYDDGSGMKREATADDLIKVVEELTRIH
Experimental: (§1) MV-4-11 cells were grown in RPMI 1640 media supplemented with 10% fetal bovine serum, streptomycin and penicillin.
(§2) Cells were cultured at approximately 10^6 cells per mL and incubated in DMSO or the indicated compound for 6-8 h. Whole cell extracts were prepared using RIPA buffer according to manufacturer's protocol (Pierce). Briefly, 3×10^6 cells were washed once in PBS, the cell pellets were resuspended in RIPA buffer and allowed to incubate for 15 minutes on ice. Cells debris was removed by centrifugation and the cleared whole cell lysates were transferred to new tubes for further analysis.
(§3) For Western blot analysis, whole cell protein extracts were separated on 4-12% SDS-polyacrylamide gels, transferred to nitrocellulose and probed with the indicated primary antibodies. Membranes were subsequently washed and probed with the appropriate IRDye secondary antibodies (LI-COR). The signal was detected using the Odyssey Imaging System (LI-COR).
(§4) The following antibodies were used in these studies: Anti-eRF3/GSPT1: Abcam, ab126090 (Cambridge, Mass.); Anti-Ikaros: Abcam, ab191394 (Cambridge, Mass.); Anti-CK1α: Abcam, ab108296 (Cambridge, Mass.); Anti-CDK9: Santa Cruz Biotechnology, sc13130 (Dallas, Tex.); Anti-CDK16: Millipore Sigma, HPA001366 (St. Louis, Mo.); 3-actin (8H10comD10) mouse monoclonal antibody: Cell Signaling Technology, #3700 (Danvers, Mass.); IRDye 680RD Goat anti-rabbit antibody: LI-COR, 926-68071 (Lincoln, Nebr.); IRDye 800CW Goat anti-mouse antibody: LI-COR, 926-32210 (Lincoln, Nebr.).
(§5) CDK9 activities are shown in Table 4 at two different concentrations. CDK16 activities are shown in Table 5 at two different concentrations. In each of Tables 1-5, the % degradation values are reported as “A”, “B”, “C”, or “D”. “A” represents a % degradation value of less than 25% (value <25%). “B” represents a % degradation value of equal to or more than 25% and less than 50% (25%≤value<50%). “C” represents a % degradation value of equal to or more than 50% and less than 75% (50%≤value<75%). “D” represents a % degradation value of equal to or more than 75% (value ≥75%).

TNF-α = TNF-α inhibition assay, LPS-induced PBMCs / CD14+ monocytes (Meso Scale); settings: 1 h pretreatment, 100 ng/mL LPS 18-24 h
Experimental: (§6) Either frozen primary blood mononuclear cells (PBMCs) or frozen CD14+ mobilized peripheral blood monocytes were purchased from AllCells (PB003F, Normal Peripheral Blood MNC (Alameda, Calif.)). Cells were quick thawed, washed 1-time with RPMI-1640 (10% FBS/1% Pen-Strep) and plated in 96 well plates at 200,000 cells per well. Cells were pretreated with DMSO only or with the indicated compound for 1 h and then induced with 100 ng/mL lipopolysaccharide (LPS) for 18-24 h. The supernatant was analyzed for IL-1β, IL-6, and TNFα, using Meso Scale assay according to manufacturer's protocol. The negative control wells were treated with DMSO.
(§7) In Table 6, the % inhibition values are reported as “A”, “B”, “C”, or “D”. “A” represents a % inhibition value of less than 50% (value <50%). “B” represents a % inhibition value of equal to or more than 50% and less than 70% (50%≤value<70%). “C” represents a % inhibition value of equal to or more than 70% and less than 90% (70%≤value<90%). “D” represents a % inhibition value of equal or more than 90% (value ≥90%). In Table 7, the fold-change values are reported as “A”, “B”, “C”, or “D”. “A” represents a fold-change value of equal to or less than 0.1 (value ≤0.1). “B” represents a fold-change value of more than 0.1 and equal to or less than 0.5 (0.1<value≤0.5). “C” represents a fold-change value of more than 0.5 and equal to or less than 1 (0.5<value≤1). “D” represents a fold-change value of more than 1 (value >1).

IL-1β = IL-1β inhibition assay, LPS-induced PBMCs / CD14+ monocytes (Meso Scale); settings: 1 h pretreatment, 100 ng/mL LPS 18-24 h
Experimental: as §6, §7

IL-6 = IL-6 inhibition assay, LPS-induced PBMCs / CD14+ monocytes (Meso Scale); settings: 1 h pretreatment, 100 ng/mL LPS 18-24 h
Experimental: as §6, §7

IKAROS = molecular target: T2, IKAROS (Homo sapiens, UniProt Q13422+Q96SW2); experiment: IKAROS degradation assay (Western blot, MV-4-11 cells); settings: MV4-11, 6-8 h
T2 construct: endogenous in cells; host or cells: MV-4-11
T2 sequence (Q13422 whole entry): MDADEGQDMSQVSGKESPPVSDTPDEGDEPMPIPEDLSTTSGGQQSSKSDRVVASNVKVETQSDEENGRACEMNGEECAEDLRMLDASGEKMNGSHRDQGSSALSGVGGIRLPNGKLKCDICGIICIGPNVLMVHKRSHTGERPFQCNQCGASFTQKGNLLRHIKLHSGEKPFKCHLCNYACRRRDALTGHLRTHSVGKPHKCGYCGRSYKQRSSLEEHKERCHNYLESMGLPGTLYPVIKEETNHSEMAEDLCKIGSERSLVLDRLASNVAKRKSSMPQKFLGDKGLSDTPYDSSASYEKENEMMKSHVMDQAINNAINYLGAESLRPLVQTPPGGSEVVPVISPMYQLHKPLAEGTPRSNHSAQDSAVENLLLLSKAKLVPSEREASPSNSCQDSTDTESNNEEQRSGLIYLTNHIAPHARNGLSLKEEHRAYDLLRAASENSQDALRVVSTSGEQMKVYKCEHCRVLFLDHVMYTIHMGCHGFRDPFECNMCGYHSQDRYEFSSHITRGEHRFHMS
T2 sequence (Q96SW2 whole entry): as the sequence (Q96SW2 whole entry) above
T2 sequence (Q16531 whole entry partner): as the sequence (Q16531 whole entry partner) above
Experimental: as §1, §2, §3, §4, §5

CDK9 = molecular target: T3, CDK9 (Homo sapiens, UniProt P50750); experiment: CDK9 degradation assay (Western blot, MV-4-11 cells); settings: 6-8 h; for Dmax at 0.1 µM: MV4-11, 0.1 μM; for Dmax at 1 µM: MV4-11, 1 μM
T3 construct: Whole cell extracts were prepared using RIPA buffer; endogenous in cells; host or cells: MV-4-11
T3 sequence (P50750 whole entry): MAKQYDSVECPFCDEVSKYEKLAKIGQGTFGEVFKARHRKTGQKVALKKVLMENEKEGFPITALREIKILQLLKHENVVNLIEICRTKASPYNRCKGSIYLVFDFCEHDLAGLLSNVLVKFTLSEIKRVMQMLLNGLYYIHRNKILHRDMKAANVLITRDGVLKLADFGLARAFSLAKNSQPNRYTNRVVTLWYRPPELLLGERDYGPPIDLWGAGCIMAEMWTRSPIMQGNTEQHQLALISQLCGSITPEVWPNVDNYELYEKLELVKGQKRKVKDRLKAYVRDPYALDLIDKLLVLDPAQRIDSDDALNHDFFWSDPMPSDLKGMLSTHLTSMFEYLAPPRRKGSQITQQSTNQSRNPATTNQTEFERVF
Experimental: as §1, §2, §3, §4, §5

CDK16 = molecular target: T4, CDK16 (Homo sapiens, UniProt Q00536); experiment: CDK16 degradation assay (Western blot, MV-4-11 cells); settings: 6-8 h; for Dmax at 0.1 µM: MV4-11, 0.1 μM; for Dmax at 1 µM: MV4-11, 1 μM
T4 construct: Whole cell extracts were prepared using RIPA buffer; endogenous in cells; host or cells: MV-4-11
T4 sequence (Q00536 whole entry): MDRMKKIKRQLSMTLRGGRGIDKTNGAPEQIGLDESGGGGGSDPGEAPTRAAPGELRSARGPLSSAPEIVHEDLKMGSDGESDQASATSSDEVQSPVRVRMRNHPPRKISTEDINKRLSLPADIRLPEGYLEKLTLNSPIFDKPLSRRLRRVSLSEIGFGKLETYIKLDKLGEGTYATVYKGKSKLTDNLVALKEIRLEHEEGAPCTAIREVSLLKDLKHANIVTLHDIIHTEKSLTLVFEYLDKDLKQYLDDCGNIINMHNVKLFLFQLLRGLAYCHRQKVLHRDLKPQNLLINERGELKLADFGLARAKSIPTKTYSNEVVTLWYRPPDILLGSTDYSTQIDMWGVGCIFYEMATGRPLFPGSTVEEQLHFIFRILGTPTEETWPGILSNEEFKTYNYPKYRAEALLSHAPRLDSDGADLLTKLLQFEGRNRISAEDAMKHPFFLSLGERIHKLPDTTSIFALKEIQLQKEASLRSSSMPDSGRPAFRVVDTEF
Experimental: as §1, §2, §3, §4, §5

Structure (SMILES) | viability at 1 µM (MOLM-13 cells) [%] | Dmax at 1 µM (GSPT1) [%] | inhibition at 1 µM (TNF-α) [%] | inhibition at 1 µM (IL-1β) [%] | inhibition at 1 µM (IL-6) [%] | Dmax at 1 µM (IKAROS) [%] | Dmax at 0.1 µM (CDK9) [%] | Dmax at 1 µM (CDK9) [%] | Dmax at 0.1 µM (CDK16) [%] | Dmax at 1 µM (CDK16) [%]
Cn1ncc(-c2nc(NC3CCC(NC(=O)CCCCCCNC(=O)NCc4scc5c4CN(C4CCC(=O)NC4=O)C5=O)CC3)ncc2Cl)c1CC1CC1 (centres unmarked) [Compound 4, 3-[2-({3-[7-(4-{5-Chloro-4-[5-(cyclopropylmethyl)-1-methyl-1H-pyrazol-4-yl]-2-pyrimidinylamino}cyclohexylamino)-7-oxoheptyl]ureido}methyl)-6-oxo-3-thia-7-azabicyclo[3.3.0]octa-1,4-dien-7-yl]-2,6-piperidinedione] | > 90 | 25 to 50 |  |  |  |  |  |  |  | 
Cn1ncc(-c2nc(N[C@H]3CC[C@H](NC(=O)CCCCCCNC(=O)NCc4cc5c(s4)C(=O)N(C4CCC(=O)NC4=O)C5)CC3)ncc2Cl)c1CC1CC1 (some centres unmarked) [Compound 5, N-((1r,4r)-4-((5-chloro-4-(5-(cyclopropylmethyl)-1-methyl-1H-pyrazol-4-yl)pyrimidin-2-yl)amino)cyclohexyl)-7-(3-((5-(2,6-dioxopiperidin-3-yl)-6-oxo-5,6-dihydro-4H-thieno[2,3-c]pyrrol-2-yl)methyl)ureido)heptanamide] | > 90 |  | 70 to 90 | > 90 | > 90 |  |  |  |  | 
CC(C)(C)c1cnc(CSc2cnc(NC(=O)C3CCN(CC(=O)NCCOCCOCCOCCNc4cccc5c4C(=O)N(C4CCC(=O)NC4=O)C5=O)CC3)s2)o1 (centres unmarked) [Compound 10, N-(5-(((5-(tert-butyl)oxazol-2-yl)methyl)thio)thiazol-2-yl)-1-(14-((2-(2,6-dioxopiperidin-3-yl)-1,3-dioxoisoindolin-4-yl)amino)-2-oxo-6,9,12-trioxa-3-azatetradecyl)piperidine-4-carboxamide] |  |  |  |  |  | 50 to 75 |  |  |  | 
CC(C)(C)c1cnc(CSc2cnc(NC(=O)C3CCN(CCOCCOCCNC(=O)NCc4cc5c(s4)C(=O)N(C4CCC(=O)NC4=O)C5)CC3)s2)o1 (centres unmarked) [Compound 19, N-(5-(((5-(tert-butyl)oxazol-2-yl)methyl)thio)thiazol-2-yl)-1-(1-(5-(2,6-dioxopiperidin-3-yl)-6-oxo-5,6-dihydro-4H-thieno[2,3-c]pyrrol-2-yl)-3-oxo-7,10-dioxa-2,4-diazadodecan-12-yl)piperidine-4-carboxamide] | 70 to 90 |  | 70 to 90 | > 90 | > 90 |  |  |  |  | 
CC(C)(C)c1cnc(CSc2cnc(NC(=O)C3CCN(CCCCCCCCNC(=O)NCc4cc5c(s4)C(=O)N(C4CCC(=O)NC4=O)C5)CC3)s2)o1 (centres unmarked) [Compound 20, N-(5-(((5-(tert-butyl)oxazol-2-yl)methyl)thio)thiazol-2-yl)-1-(8-(3-((5-(2,6-dioxopiperidin-3-yl)-6-oxo-5,6-dihydro-4H-thieno[2,3-c]pyrrol-2-yl)methyl)ureido)octyl)piperidine-4-carboxamide] | > 90 |  |  |  |  | 50 to 75 |  |  |  | 
Cn1ncc(-c2nc(N[C@H]3CC[C@H](NCCCCCCNC(=O)NCc4cc5c(s4)C(=O)N(C4CCC(=O)NC4=O)C5)CC3)ncc2Cl)c1CC1CC1 (some centres unmarked) [Compound 24, 1-(6-(((1r,4r)-4-((5-chloro-4-(5-(cyclopropylmethyl)-1-methyl-1H-pyrazol-4-yl)pyrimidin-2-yl)amino)cyclohexyl)amino)hexyl)-3-((5-(2,6-dioxopiperidin-3-yl)-6-oxo-5,6-dihydro-4H-thieno[2,3-c]pyrrol-2-yl)methyl)urea] | > 90 |  |  |  |  | 25 to 50 | 50 to 75 | ≥ 75 | 50 to 75 | ≥ 75
Cn1ncc(-c2nc(N[C@H]3CC[C@H](NCC(=O)NCCCCCNCC(=O)NCc4cc5c(s4)C(=O)N(C4CCC(=O)NC4=O)C5)CC3)ncc2F)c1CC1CC1 (some centres unmarked) [Compound 25, 2-(((1r,4r)-4-((4-(5-(cyclopropylmethyl)-1-methyl-1H-pyrazol-4-yl)-5-fluoropyrimidin-2-yl)amino)cyclohexyl)amino)-N-(5-((2-(((5-(2,6-dioxopiperidin-3-yl)-6-oxo-5,6-dihydro-4H-thieno[2,3-c]pyrrol-2-yl)methyl)amino)-2-oxoethyl)amino)pentyl)acetamide] | > 90 |  |  |  |  | 25 to 50 | 50 to 75 | 50 to 75 |  | 50 to 75
CC(C)(C)c1cnc(CSc2cnc(NC(=O)C3CCN(CC(=O)NCCCCCNC(=O)NCc4cc5c(s4)C(=O)N(C4CCC(=O)NC4=O)C5=O)CC3)s2)o1 (centres unmarked) [Compound 27, N-(5-(((5-(tert-butyl)oxazol-2-yl)methyl)thio)thiazol-2-yl)-1-(2-((5-(3-((5-(2,6-dioxopiperidin-3-yl)-4,6-dioxo-5,6-dihydro-4H-thieno[2,3-c]pyrrol-2-yl)methyl)ureido)pentyl)amino)-2-oxoethyl)piperidine-4-carboxamide] | > 90 |  |  |  |  | 25 to 50 |  |  |  | 
Cn1ncc(-c2nc(N[C@H]3CC[C@H](NCC(=O)NCCCCNCC(=O)NCc4cc5c(s4)C(=O)N(C4CCC(=O)NC4=O)C5=O)CC3)ncc2Cl)c1CC1CC1 (some centres unmarked) [Compound 36, 2-(((1r,4r)-4-((5-chloro-4-(5-(cyclopropylmethyl)-1-methyl-1H-pyrazol-4-yl)pyrimidin-2-yl)amino)cyclohexyl)amino)-N-(4-((2-(((5-(2,6-dioxopiperidin-3-yl)-4,6-dioxo-5,6-dihydro-4H-thieno[2,3-c]pyrrol-2-yl)methyl)amino)-2-oxoethyl)amino)butyl)acetamide] | 50 to 70 |  | 70 to 90 | 70 to 90 | 70 to 90 |  | < 25 | 25 to 50 | < 25 | 25 to 50
CN(CCNCC(=O)NCc1scc2c1CN(C1CCC(=O)NC1=O)C2=O)CCNC(=O)CN1CCC(C(=O)Nc2ncc(SCc3ncc(C(C)(C)C)o3)s2)CC1 (centres unmarked) [Compound 44, N-(5-(((5-(tert-butyl)oxazol-2-yl)methyl)thio)thiazol-2-yl)-1-(1-(5-(2,6-dioxopiperidin-3-yl)-4-oxo-5,6-dihydro-4H-thieno[3,4-c]pyrrol-1-yl)-8-methyl-3,12-dioxo-2,5,8,11-tetraazatridecan-13-yl)piperidine-4-carboxamide] | 50 to 70 |  | 50 to 70 | 50 to 70 | < 50 |  |  |  |  | 
